Data set [1] concerns iPSC lines. The format is cell-based. Particulars: protocol without doxycycline.
In data set [2] the test system is iPSC line AS7192. In words: Endoderm induction compound comparison, cell number at day 7, line AS7192. Particulars: 1 μM concentration. The format is cell-based, human. Here is the method: FIG. 2. Doxycycline Enhanced Endoderm. A: Immunofluorescence and bright-field images showing induction of iPSC line 1023-5 to definitive endoderm (DE) with Hoechst 33342 nuclear staining in blue, and antibody staining in green for OCT3/4, FOXA, HNF1p and CXCR4 with AlexaFluor 488 secondary (green) antibody. […] (scale bar=[…]); B: Compound Screen showing other antibiotics and other compounds affecting the mitochondria were compared to doxycycline. […] The number of cells is shown measured seven days after induction compared to the plating density at day 0 (n=2); C: Comparison of Tetracycline Derivatives in iPSC lines AG02261. […] The number of cells is shown measured seven days after induction compared to the plating density at day 0. […] FIG. 9. Comparison of Tetracycline Derivatives and Other Compounds in additional cell line. A: Induction of iPSC lines AS7192 was performed. […] The number of cells was measured seven days after induction compared to the plating density at day 0. […] Induction of Definitive Endoderm (days 1-7). iPSCs were plated on 6-, 12-, or 96-well Matrigel-coated plates at different densities for differentiation in iPSC media containing 10 μM Y-27632 and 2 μM doxycycline. For example, typical plating density in a single well of a 6-well plate was 500,000 cells or 20,000 cells per well for 96-well plates. […]

Data set [3] concerns iPSC line AG02261. Description: Endoderm induction compound comparison, cell number at day 7, line AG02261. The format is cell-based, human. Particulars: for response in compound screen, number of cells seven days after induction: cell line AG02261, FIG. 2B; for effect on endoderm induction at high concentration: AG02261, 10 μM concentration. On the procedure:
FIG. 2. Doxycycline Enhanced Endoderm. A: Immunofluorescence and bright-field images showing induction of iPSC line 1023-5 to definitive endoderm (DE) with Hoechst 33342 nuclear staining in blue, and antibody staining in green for OCT3/4, FOXA, HNF1p and CXCR4 with AlexaFluor 488 secondary (green) antibody. […] (scale bar=[…]); B: Compound Screen showing other antibiotics and other compounds affecting the mitochondria were compared to doxycycline. […] The number of cells is shown measured seven days after induction compared to the plating density at day 0 (n=2); C: Comparison of Tetracycline Derivatives in iPSC lines AG02261. […] The number of cells is shown measured seven days after induction compared to the plating density at day 0. […] Induction of Definitive Endoderm (days 1-7). iPSCs were plated on 6-, 12-, or 96-well Matrigel-coated plates at different densities for differentiation in iPSC media containing 10 μM Y-27632 and 2 μM doxycycline. For example, typical plating density in a single well of a 6-well plate was 500,000 cells or 20,000 cells per well for 96-well plates. The differentiation process consisted of one week of RPMI media supplemented with Gem21 NeuroPlex without insulin at 1× (supplied at 50×, Gemini Bio-Products West Sacramento, Calif., catalog #400-962, or supplemented with Gibco B27 without insulin at 1×), Glutagro at 1× (Corning, Manassas, Va., catalog #25-015-CI, non-essential amino acids at 1× (Gibco, catalog #11-140-050), sodium butyrate (0.5 mM, Sigma Aldrich, catalog #B5887) and recombinant human Activin A (100 ng/mL, Peprotech, Rocky Hill, N.J., catalog #120-14E) for 7 days. On day 1, 2% KnockOut Serum Replacement (KSR; Gibco Catalog #10828028), CHIR-99021 (10 ng/mL, Selleckchem catalog #S2924), PI-103 (10 ng/mL,Selleckchem catalog #S1038), recombinant human BMP4 (10 ng/mL, Peprotech catalog #120-05ET) and FGF2 (20 ng/mL, Peprotech catalog #100-18B) were added to the media. On day 2, 1% KSR, PI-103 (10 ng/mL) and BMP4 (10 ng/mL) and FGF2 (20 ng/mL) and on day 3, 0.2% KSR and PI-103 (10 ng/mL) were added to the media. Doxycycline hyclate (Acros Organics catalog #446061000) was added throughout definitive endoderm induction starting on day 0 (passage day) at various concentrations, as described herein, with a standard concentration being 2 μM. These steps can be performed at normal room oxygen at about 20% or at low oxygen between 4 and 6%.

In data set [4] the test system is iPSC lines. The class given is cell-based. The following applies: for ability to enhance survival of cells during induction to endoderm, other antibiotic classes compared to doxycycline: FIGS. 2B and 9B; for effect of adding Y-27632 to the protocol including doxycycline: cell lines still difficult to induce. Here is the method:
Induction of Definitive Endoderm (days 1-7). iPSCs were plated on 6-, 12-, or 96-well Matrigel-coated plates at different densities for differentiation in iPSC media containing 10 μM Y-27632 and 2 μM doxycycline. For example, typical plating density in a single well of a 6-well plate was 500,000 cells or 20,000 cells per well for 96-well plates. The differentiation process consisted of one week of RPMI media supplemented with Gem21 NeuroPlex without insulin at 1× (supplied at 50×, Gemini Bio-Products West Sacramento, Calif., catalog #400-962, or supplemented with Gibco B27 without insulin at 1×), Glutagro at 1× (Corning, Manassas, Va., catalog #25-015-CI, non-essential amino acids at 1× (Gibco, catalog #11-140-050), sodium butyrate (0.5 mM, Sigma Aldrich, catalog #B5887) and recombinant human Activin A (100 ng/mL, Peprotech, Rocky Hill, N.J., catalog #120-14E) for 7 days. On day 1, 2% KnockOut Serum Replacement (KSR; Gibco Catalog #10828028), CHIR-99021 (10 ng/mL, Selleckchem catalog #S2924), PI-103 (10 ng/mL,Selleckchem catalog #S1038), recombinant human BMP4 (10 ng/mL, Peprotech catalog #120-05ET) and FGF2 (20 ng/mL, Peprotech catalog #100-18B) were added to the media. On day 2, 1% KSR, PI-103 (10 ng/mL) and BMP4 (10 ng/mL) and FGF2 (20 ng/mL) and on day 3, 0.2% KSR and PI-103 (10 ng/mL) were added to the media. Doxycycline hyclate (Acros Organics catalog #446061000) was added throughout definitive endoderm induction starting on day 0 (passage day) at various concentrations, as described herein, with a standard concentration being 2 μM. These steps can be performed at normal room oxygen at about 20% or at low oxygen between 4 and 6%.

Entries after “also recorded” stand apart in the source; their conditions may differ. Like-named read-outs stand apart in the source and are kept apart here.

On to `Cc1c[nH]c(-c2cnc(NCCNc3ccc(C#N)cn3)nc2-c2ccc(Cl)cc2Cl)n1` [CHIR99021], for which the “effect on number of cells in endoderm induction” value in data set [1] (addition in the first 24 hours) was “improved the number of cells in multiple different cell lines”.
Consider `CN(C)[C@@H]1C(O)=C(C(N)=O)C(=O)[C@@]2(O)C(O)=C3C(=O)c4c(O)ccc(Cl)c4[C@@H](O)[C@H]3C[C@@H]12` [Demeclocycline, demeclocycline], for which, in data set [2], the “ability to rescue endoderm induction compared to doxycycline” value is “to some extent”.
With `N=C(N)SCCc1ccc(OCc2ccc([N+](=O)[O-])cc2)cc1` [KB-R7943], the “response in compound screen, number of cells seven days after induction” value in data set [3] was “showed responses at specific doses”.
Take `C=C1c2cccc(O)c2C(=O)C2=C(O)[C@]3(O)C(=O)C(C(N)=O)=C(O)[C@@H](N(C)C)[C@@H]3[C@@H](O)[C@H]12` [Methacycline, methacycline]: the “effect on endoderm induction at high concentration” value in data set [3] is “mostly toxicity”.
For `CN(C)c1ccc(O)c2c1C[C@H]1C[C@H]3[C@H](N(C)C)C(O)=C(C(N)=O)C(=O)[C@@]3(O)C(O)=C1C2=O` [Minocycline, minocycline], the “effect on endoderm induction at high concentration” value in data set [3] is listed as “mostly toxicity”.
In the case of `COc1ccc(C[C@H](N)C(=O)N[C@H]2[C@@H](O)[C@H](n3cnc4c(N(C)C)ncnc43)O[C@@H]2CO)cc1` [Puromycin], the “ability to enhance survival of cells during induction to endoderm, other antibiotic classes compared to doxycycline” value in data set [4] is given as “only Gentamicin showed a similar statistically significant ability”.
Consider `N.N.N.N.N.N.N.N.N.N.N.N.N.N.[Cl-].[Cl-].[Cl-].[Cl-].[Cl-].[Cl-].[O-2].[O-2].[Ru+3].[Ru+3].[Ru+4]` [Ruthenium Red], for which, in data set [3], the “response in compound screen, number of cells seven days after induction” value is listed as “showed responses at specific doses”.
Consider `C[C@@H](N)[C@H]1CC[C@H](C(=O)Nc2ccncc2)CC1` [Y-27632], for which the “effect of adding Y-27632 to the protocol including doxycycline” value in data set [4] was “promoted the efficient and complete differentiation of these cell lines”; in data set [4] (listed as Y27632), “led to the rescue of additional stem cell lines”. Besides, the “rescue of induction by Y-27632 alone” value in data set [1] (resistant lines) was “does not produce the same robust induction; also recorded: not able to rescue resistant lines”.
For `CC1(C)S[C@@H]2[C@H](NC(=O)[C@H](N)c3ccccc3)C(=O)N2[C@H]1C(=O)O` [ampicillin], the “ability to enhance survival of cells during induction to endoderm, other antibiotic classes compared to doxycycline” value in data set [4] is recorded as “only Gentamicin showed a similar statistically significant ability”.
Regarding Gentamicin [Gentamycin], the “number of cells seven days after induction compared to the plating density at day 0 (compound screen)” value in data set [4] (antibiotics and mitochondria-affecting compounds compared to doxycycline, FIG. 2B) is reported as “strong increasing dose response”.

These data come from patent US20230002736A1, “ENDODERM DIFFERENTIATION FROM PLURIPOTENT STEM CELL LINES” (priority 2019, published 2023).
